# Test results as given in patent US6492353B1, “1,3-dihydroxy-20,20-cycloalkyl-vitamin D3analogs” (Syntex LLC, priority 1997, dated 2002).
# Where “and” joins values, the source holds several entries; their conditions need not be identical. Equal values may be shown once.
# Key:
# [1] = system: ovariectomized (Ovx) rats; test: Bone anabolism in the ovariectomized rat; format: in vivo; design: Urine Calcium/Creatinine (6th Week): unit not given here; settings: for Whole Femur BMD: weeks 3-6 post-ovariectomy
# From the text: Three month old rats are ovariectomized (Ovx) and administered either 1,25-dihydroxy vitamin D3 (vit. D in Table) or one of the compounds of the present invention once a day by mouth starting at 3 weeks post-ovariectomy and continuing until final sacrifice at 6 weeks postovariectomy. Control groups, both sham (rats that were not ovariectomized) and Ovx, received vehicle only. Blood and urine samples were collected twice, at 4 weeks post-ovariectomy and again at the 6 week mark and the amount of serum and urine calcium was determined. The final femoral calcium was determined upon sacrifice 6 weeks post-ovariectomy.
# The bone mineral density of the right femur was determined by using a High Resolution Software Package on a QDR-1000W Bone Densitometer™ (Hologic, Walthan, Mass.). The animals were scanned by placing them on a scanning block in a supine position such that the right leg was perpendicular to the main body and the tibia was perpendicular to the femur. The increase in the bone mineral density and the amount of calcium in the urine and the serum for some of the compounds of this invention in this assay are given in the table below: […]
# [2] = system: MCF-7 cells; test: Cell proliferation assay in MCF-7 breast cancer cells; format: cell-based; settings: Homo sapiens, MCF7, 168 h; MCF-7, 7 days of culture with analog, Coulter count; read-out: IC50, concentration causing 50% reduction in MCF-7 cell growth in culture
# Procedure: MCF-7 cells are human mammary carcinoma cells that are positive for estrogen receptors. The potential activity of vitamin D3 analogs against breast cancer was assessed from inhibition of proliferation of MCF-7 cells in culture.
# MCF-7 cells were plated at 9000 cells/well in 24-well plates and incubated at 37° C. in 5% CO2/95% air in Dulbecco's Modified Eagle Medium containing 10% fetal bovine serum, 700 nM insulin, 2 mM glutarnine, 0.1 mM MEM non-essential amino acids and 1 mM sodium pyruvate. Stock solutions of vitamin D3 analogs were prepared at a concentration of 10 mM in absolute ethanol and stored at −20° C. under argon. Four days after plating, the number of MCF-7 were counted by removing the medium in 8 wells, rinsing the cells with 0.5 ml PBS without Ca/Mg and then incubating the cells with 0.3 ml of trypsin-EDTA. After 15 min., the trypsinization was stopped by adding 0.3 ml of medium. 0.2 ml aliquot was transferred from each well into dilu-vials containing 10 ml isoton and the number of cells were counted on Coulter Counter™ (Coulter, Miami, Fla.).
# MCF-7 cells in the remaining wells were refed with either control medium or medium containing varying concentrations of the vitamin D3 analog. After a further 7 days of culture, the number of MCF-7 cells in each well was assessed by removing the medium, rinsing the cells with 0.5 ml PBS without Ca/Mg and then incubating the cells with 0.5 ml of trypsin-EDTA for 15 min. The trypsinization was stopped by adding 0.5 ml of medium and 0.1 ml aliquot from each well was transferred into dilu-vials containing 10 ml isoton and the number of cells were counted on Coulter Counter™.
# [3] = system: ZR-75 cells; test: Cell proliferation assay in ZR-75 breast cancer cells (MTT); format: cell-based; settings: Homo sapiens, ZR75, 240 h, ZR-75, 10 days of culture with analog, read-out: IC50, concentration corresponding to half-maximal reduction in 570 nm absorbance
# Procedure: ZR-75 cells are human mammary carcinoma cells that are positive for estrogen receptors. The potential activity of vitamin D3 analogs against breast cancer was assessed from inhibition of proliferation of ZR-75 cells in culture.
# ZR-75 cells were plated at 12,500 cells/well in 24-well plates and incubated at 37° C. in 5% CO2/95% air in RPMI medium containing 10% fetal bovine serum and 2 mM L-glutamine. Stock solutions of vitamin D3 analogs were prepared at a concentration of 10 mM in absolute ethanol and stored at −20° C. under argon. One day after plating, ZR-75 cells were refed with either control medium or medium containing varying concentrations of the vitamin D3 analog.
# [4] = system: rats with secondary hyperparathyroidism due to renal failure; test: Secondary hyperparathyroidism in the rat renal insufficiency model (7/8 nephrectomy); format: in vivo; settings: 7/8 nephrectomized rats, 0.1 μg/kg/day oral, seven days; for PTH T=1-T=0: change in serum PTH; for Final Ca Levels: serum calcium
# Procedure: Female sprague Dawley rats were anesthetized, their right kidney removed and 2-3 branches of the left renal artery were ligated to achieve 7/8 nephrectomy. They were placed on a high phosphorous diet (0.06% Ca and 0.08 phosphorous). Approximately 3-6 weeks after surgery, rats were bled to screen serum PTH levels and rats with PTH levels between 100-500 pg/ml were selected for the study.
# There was a pre-bleed (T=0) and each group was dosed daily for seven days by oral […] with either the compound of Formula (I) (0.1 μg/kg/day), vehicle control or 1,25-(OH)2 vitamin D3 positive control. Compounds were predissolved in ethanol and diluted with vehicle (Miglyol 812) followed by evaporation of the ethanol.
# After the last day of dosing, the animals were bled again (T=1) and sacrificed. Serum PTH assays were done with Nichols Institute Diagnostic Kit #40-2240. Serum calcium assays were done with Sigma Diagnostic Kit #587 with o-cresophthalein. Serum creatinine assays were done with Sigma Diagnostic Kit #1600-320 with ammonium molybdate.
# [5] = system: women with postmenopausal osteoporosis; settings: cited from earlier work
Compound,IC50 [2] [nM],IC50 [3] [nM],Final Ca Levels [4] [mg/dL],PTH T=1-T=0 [4] [pg/mL],other results
"C=C1/C(=C\C=C2/CCC[C@]3(C)[C@@H]([C@H](C)CCCC(C)(C)O)CC[C@@H]23)C[C@@H](O)C[C@@H]1O [1,25-di(OH)-cholecalciferol, 1,25-dihydroxy-cholecalciferol, reference compound]",149,13,9.75,-18,"Serum Calcium (6th Week) ([1]; 0.200 μg/kg/day by mouth, listed as Vit D): 9.49 mg/dL and 10.65 mg/dL; lower rate of new vertebral fractures compared with elemental calcium 1000 mg/day ([5]; mild to moderate postmenopausal osteoporosis, 0.25 microgram twice daily, after 3 years): 3 fold; tolerability ([5]; overall): well tolerated; steroid-induced bone loss ([5]; patients starting prednisone or prednisolone, 0.5 to 1.0 micrograms/day plus calcium 1000 mg/day, with or without calcitonin): prevented steroid-induced bone loss"
"C[C@]12CCC/C(=C\C=C3C[C@@H](O)C[C@H](O)C3)[C@@H]1CC[C@@H]2C1(CC#CC(O)(C(F)(F)F)C(F)(F)F)CC1 [Cpd #4, 1,25-dihydroxy-23-yne-26,27-hexafluoro-20,21,28-cyclopropyl-19-norcholecalciferol]",0.05,0.15,10.1,-137,Serum Calcium (6th Week) ([1]; 0.005 μg/kg/day by mouth): 8.94 mg/dL; Urine Calcium/Creatinine (6th Week) ([1]; 0.005 μg/kg/day by mouth): 0.60; Whole Femur BMD ([1]; 0.005 μg/kg/day by mouth): 0.241 g/cm²
"C=C1/C(=C\C=C2/CCC[C@]3(C)[C@@H](C4(CC#CC(C)(C)O)CC4)CC[C@@H]23)C[C@@H](O)C[C@@H]1O [compound 1, 1,25-dihydroxy-23-yne-20,21,28-cyclopropyl-cholecalciferol]",0.5,–,–,–,–
"CC(C)(O)C#CCC1([C@H]2CC[C@H]3/C(=C/C=C4C[C@@H](O)C[C@H](O)C4)CCC[C@]23C)CC1 [compound 2, 1,25-dihydroxy-23-yne-20,21,28-cyclopropyl-19-nor-cholecalciferol]",0.3,0.9,–,–,–
"C[C@]12CCC/C(=C\C=C3C[C@@H](O)C[C@H](O)C3)[C@@H]1CC[C@@H]2C1(C/C=C\C(O)(C(F)(F)F)C(F)(F)F)CC1 [compound 6, 1,25-dihydroxy-23-(Z)-ene-26,27-hexafluoro-20,21,28-cyclopropyl-19-norcholecalciferol]",0.03,0.1,–,–,–

# Further lines, with some results ahead:
IC50 [2] [nM],IC50 [3] [nM],Final Ca Levels [4] [mg/dL],Compound,PTH T=1-T=0 [4] [pg/mL],other results
0.03,0.01,10.7,"C=C1/C(=C\C=C2/CCC[C@]3(C)[C@@H](C4(CC#CC(O)(C(F)(F)F)C(F)(F)F)CC4)CC[C@@H]23)C[C@@H](O)C[C@@H]1O [Cpd #3, 1,25-dihydroxy-23-yne-26,27-hexafluoro-20,21,28-cyclopropyl-cholecalciferol]",-70,Serum Calcium (6th Week) ([1]; 0.010 μg/kg/day by mouth): 10.25 mg/dL; Urine Calcium/Creatinine (6th Week) ([1]; 0.010 μg/kg/day by mouth): 0.83; Whole Femur BMD ([1]; 0.010 μg/kg/day by mouth): 0.24 g/cm²
0.03,0.1,–,"C=C1/C(=C\C=C2/CCC[C@]3(C)[C@@H](C4(C/C=C\C(O)(C(F)(F)F)C(F)(F)F)CC4)CC[C@@H]23)C[C@@H](O)C[C@@H]1O [compound 5, 1,25-dihydroxy-23-(Z)-ene-26,27-hexafluoro-20,21,28-cyclopropyl-cholecalciferol]",–,–
